From ChEMBL document CHEMBL6071165, “Design, synthesis and biological evaluation of plant-derived miliusol derivatives achieve TNBC profound regression in vivo” (Eur J Med Chem, 2024)
Active and inactive are the calls of the source. No cut-off for these calls is given here.

Experiments:
[1] = Antiproliferative activity against human MCF-10A cells assessed as inhibition of cell proliferation incubated for 48 hrs by MTT assay; format: toxicity, cell-based
[2] = tested on: BT-549; experiment: Inhibition of cell proliferation in human BT-549 cells assessed as reduction in Ki-67 expression at 0.5 to 2 uM incubated for 24 hrs by DAPI staining based immunofluorescence analysis; format: functional; settings: dose 0.5-2 µM
[3] = tested on: MDA-MB-231; experiment: Downregulation of c-Jun level in human MDA-MB-231 cells incubated for 24 hrs by Western blot analysis; format: functional, cell-based; settings: dose 0.5-2 µM
[4] = tested on: MDA-MB-231; experiment: Inhibition of glycolysis in human MDA-MB-231 cells assessed as reduction in lactate production at 0.5 to 2 uM; format: functional, cell-based; settings: dose 0.5-2 µM
[5] = tested on: BT-549; experiment: Induction of ER stress in human BT-549 cells assessed as appearance of large number of vacuoles at 1 uM incubated for 24 hrs by TEM analysis; format: functional, cell-based
[6] = tested on: MDA-MB-231; experiment: Induction of ER stress in human MDA-MB-231 cells assessed as upregulation of BIP protein level at 1 uM incubated for 24 hrs by DAPI staining based immunofluorescence analysis; format: functional, cell-based
[7] = tested on: MDA-MB-231; experiment: Induction of ER stress in human MDA-MB-231 cells assessed as activation of CHOP protein level incubated for 24 hrs by Western blot analysis; format: functional, cell-based; settings: dose 0.5-2 µM
[8] = tested on: MDA-MB-231; experiment: Induction of ER stress in human MDA-MB-231 cells assessed as activation of BIP protein level incubated for 24 hrs by Western blot analysis; format: functional, cell-based; settings: dose 0.5-2 µM
[9] = tested on: BT-549; experiment: Induction of ER stress in human BT-549 cells assessed as activation of Xbp-1s protein level incubated for 24 hrs by Western blot analysis; format: functional, cell-based; settings: dose 0.5-2 µM
[10] = tested on: MDA-MB-231; experiment: Induction of ER stress in human MDA-MB-231 cells assessed as activation of Xbp-1s protein level incubated for 24 hrs by Western blot analysis; format: functional, cell-based; settings: dose 0.5-2 µM
[11] = tested on: BT-549; experiment: Induction of apoptosis in human BT-549 cells incubated for 24 hrs by Annexin V-PI staining based flow cytometric analysis; format: functional, cell-based; settings: dose 0.5-2 µM
[12] = tested on: BT-549; experiment: Induction of apoptosis in human BT-549 cells assessed as late apoptotic cells at 0.5 uM incubated for 24 hrs by Annexin V-PI staining based flow cytometric analysis (reference value: 2.95%); format: functional
[13] = tested on: BT-549; experiment: Induction of apoptosis in human BT-549 cells assessed as viable cells at 1 uM incubated for 24 hrs by Annexin V-PI staining based flow cytometric analysis (reference value: 93.0%); format: functional; settings: read-out: Activity
[14] = tested on: BT-549; experiment: Induction of apoptosis in human BT-549 cells assessed as late apoptotic cells at 2 uM incubated for 24 hrs by Annexin V-PI staining based flow cytometric analysis (reference value: 2.95%); format: functional
[15] = tested on: BT-549; experiment: Induction of apoptosis in human BT-549 cells assessed as necrotic cells at 2 uM incubated for 24 hrs by Annexin V-PI staining based flow cytometric analysis (reference value: 3.32%); format: functional
[16] = tested on: MDA-MB-231; experiment: Induction of apoptosis in human MDA-MB-231 cells assessed as viable cells at 0.5 uM incubated for 24 hrs by Annexin V-PI staining based flow cytometric analysis (reference value: 96.5%); format: functional; settings: read-out: Activity
[17] = tested on: MDA-MB-231; experiment: Induction of apoptosis in human MDA-MB-231 cells assessed as early apoptotic cells at 0.5 uM incubated for 24 hrs by Annexin V-PI staining based flow cytometric analysis (reference value: 0.42%); format: functional
[18] = tested on: MDA-MB-231; experiment: Induction of apoptosis in human MDA-MB-231 cells assessed as late apoptotic cells at 0.5 uM incubated for 24 hrs by Annexin V-PI staining based flow cytometric analysis (reference value: 1.83%); format: functional
[19] = tested on: MDA-MB-231; experiment: Induction of apoptosis in human MDA-MB-231 cells assessed as late apoptotic cells at 1 uM incubated for 24 hrs by Annexin V-PI staining based flow cytometric analysis (reference value: 1.83%); format: functional
[20] = tested on: MDA-MB-231; experiment: Induction of apoptosis in human MDA-MB-231 cells assessed as necrotic cells at 1 uM incubated for 24 hrs by Annexin V-PI staining based flow cytometric analysis (reference value: 1.29%); format: functional
[21] = tested on: MDA-MB-231; experiment: Induction of apoptosis in human MDA-MB-231 cells assessed as viable cells at 2 uM incubated for 24 hrs by Annexin V-PI staining based flow cytometric analysis (reference value: 96.5%); format: functional; settings: read-out: Activity
[22] = tested on: MDA-MB-231; experiment: Induction of apoptosis in human MDA-MB-231 cells assessed as late apoptotic cells at 2 uM incubated for 24 hrs by Annexin V-PI staining based flow cytometric analysis (reference value: 1.83%); format: functional
[23] = tested on: MDA-MB-231; experiment: Induction of apoptosis in human MDA-MB-231 cells assessed as upregulation of Bax expression at 0.5 to 2 uM incubated for 24 hrs by Western blot analysis; format: functional, cell-based; settings: dose 0.5-2 µM
[24] = tested on: BT-549; experiment: Induction of apoptosis in human BT-549 cells assessed as upregulation of cleavage of caspase-3 expression at 0.5 to 2 uM incubated for 24 hrs by Western blot analysis; format: functional, cell-based; settings: dose 0.5-2 µM
[25] = tested on: MDA-MB-231; experiment: Antitumor activity against human MDA-MB-231 cells xenografted in female BALB/c mouse model assessed as reduction in tumor volume administered subcutaneously and measured every day; format: functional, cell-based; settings: dose 5-20 mg/kg, route sc
[26] = tested on: BT-549; experiment: Antitumor activity against human BT-549 cells xenografted in female BALB/c mouse model assessed as reduction in tumor volume administered subcutaneously and measured every day; format: functional, cell-based; settings: dose 5-20 mg/kg, route sc
[27] = Toxicity in female BALB/c mouse xenografted with human BT-549 cells assessed as effect on pathological changes in heart at 5 to 20 mg/kg, sc by H and E staining based analysis; format: organism-based; settings: in vivo, dose 5-20 mg/kg
[28] = Toxicity in female BALB/c mouse xenografted with human BT-549 cells assessed as effect on pathological changes in liver at 5 to 20 mg/kg, sc by H and E staining based analysis; format: organism-based; settings: in vivo, dose 5-20 mg/kg
[29] = tested on: BT-549; experiment: Antiproliferative activity against human BT-549 cells xenografted in female BALB/c mouse model assessed as increase in E-cadherin level at 5 to 20 mg/kg administered subcutaneously by immunohistochemical staining based microscopic analysis; format: functional, organism-based; settings: dose 5-20 mg/kg, route sc
[30] = tested on: BT-549; experiment: Antiproliferative activity against human BT-549 cells xenografted in female BALB/c mouse model assessed as fold change in inhibition of PKM2 expression at 20 mg/kg administered subcutaneously incubated for 24 hrs by Western blot analysis (reference value: 1.05%); format: functional; settings: route sc
[31] = tested on: BT-549; experiment: Antiproliferative activity against human BT-549 cells xenografted in female BALB/c mouse model assessed as fold change in upregulation of BAX protein level at 10 mg/kg administered subcutaneously incubated for 24 hrs by Western blot analysis (reference value: 1.00%); format: functional; settings: route sc
[32] = tested on: BT-549; experiment: Antiproliferative activity against human BT-549 cells xenografted in female BALB/c mouse model assessed as fold change in cleavage of caspase-3 level at 20 mg/kg administered subcutaneously incubated for 24 hrs by Western blot analysis (reference value: 1.00%); format: functional; settings: route sc
[33] = tested on: MDA-MB-231; experiment: Antimetastatic activity against human MDA-MB-231-Luc cells xenografted in female BALB/C mouse assessed as reduction in metastasis speed at 20 mg/kg administered subcutaneously and measured for 16 days; format: functional, organism-based; settings: route sc, time 16.0 day
[34] = Toxicity in female BALB/c mouse assessed as change in spleen administered subcutaneously measured upto 16 days; format: tissue-based; settings: in vivo, sc, 384 h, time < 16 day

With `CC(C)=CCC/C(C)=C/[C@H]1OC(=O)CC12C[C@H](OC(=O)Cc1ccc(NC(=O)/C=C/c3ccccc3)cc1)C=CC2=O` (some centres undefined) the IC50 at 48 h [1] was 16 µM, the inhibition [2] was “Active” and the Activity [3] was “Dose-Dependent Effect”. For the same compound, the inhibition [4] was “Active”, the Activity [5] was “Active” and the Activity [6] was “Active”. For the same compound, the Activity [7] was “Dose-Dependent Effect”, the Activity [8] was “Dose-Dependent Effect” and the Activity [9] was “Active”. For the same compound, the Activity [10] was “Active”, the Activity [11] was “Dose-Dependent Effect” and the Activity [12] was 3.62%. It also gave a viability at 1 µM [13] of 66%, an Activity [14] of 50.1% and an Activity [15] of 4.02%. It also gave a viability at 0.5 µM [16] of 70.1%, an Activity [17] of 0.83% and an Activity [18] of 16.4%. The Activity [19] was 41.2%, the Activity [20] was 15.9% and the viability at 2 µM [21] was 48.8%. The Activity [22] was 42.4%, the Activity [23] was “Active” and the Activity [24] was “Active”. For the same compound, the Activity [25] was “Dose-Dependent Effect”, the Activity [26] was “Dose-Dependent Effect” and the Activity [27] was “Non-Toxic”. The Activity [28] was “Non-Toxic”, the Activity [29] was “Active” and the “fold change (FC)” value [30] was 0.16. The “fold change (FC)” value [31] was 1.61, the “fold change (FC)” value [32] was 1.74 and the Activity [33] was “Active”. The Activity [34] was “Non-Toxic”.
